Data taken from patent publication US8183243B2, “Melanocortin receptor agonists” (LG Life Sciences Ltd., priority 2008, dated 2012).

Molecular target: T1, MC4R (Homo sapiens, UniProt P32245)
T1 construct: expressed in transfected cells; host or cells: HEK (Human Embryonic Kidney) permanent expression cell line HEK MC4R-Luc, co-expressing CRE-luciferase
Test: MCR agonistic activity (luciferase assay / cAMP accumulation assay) on MC4R
Format: cell-based
Conditions: HEK cell lines expressing MC4R; method A (CRE-luciferase) or B (cAMP accumulation), not said which; read-out: EC50 value, agonistic activity to MC4R (range per group of Examples)
Summary of the method: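 HEK cells stably expressing MC4R with a CRE-luciferase reporter treated 5 hours at 37 °C with serially diluted agonist (≤1% DMSO); luminescence expressed relative to 10 nM NDP-MSH, EC50 at half-maximal signal. Alternatively, cAMP measured after 30 minutes with compound plus 500 μM IBMX by [3H]-cAMP competition binding.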

T1 sequence (P32245 whole entry, species assumed): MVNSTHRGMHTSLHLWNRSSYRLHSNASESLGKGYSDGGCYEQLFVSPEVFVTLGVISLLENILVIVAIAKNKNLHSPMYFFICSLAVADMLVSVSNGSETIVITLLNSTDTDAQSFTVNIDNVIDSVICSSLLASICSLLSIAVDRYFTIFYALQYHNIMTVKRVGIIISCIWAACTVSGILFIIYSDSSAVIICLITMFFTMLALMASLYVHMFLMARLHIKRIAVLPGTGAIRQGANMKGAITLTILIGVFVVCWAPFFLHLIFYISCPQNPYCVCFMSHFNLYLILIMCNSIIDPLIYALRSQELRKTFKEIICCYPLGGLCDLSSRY

Row | SMILES | EC50 [µM]
1 | CC(C)N1CCN(C(=O)[C@@H]2C[C@H](N(C(=O)[C@@H]3CCCO3)C3CCC(C)(C)CC3)CN2C(=O)[C@@H]2CN(C3CCOCC3)C[C@H]2c2ccc(F)cc2F)CC1 [Example 47, (2S)-N-{(3S,5S)-1-{[(3S,4R)-4-(2,4-difluorophenyl)-1-(tetrahydro-2H-pyran-4-yl)pyrrolidin-3-yl]carbonyl}-5-[(4-isopropylpiperazin-1-yl)carbonyl]pyrrolidin-3-yl}-N-(4,4-dimethylcyclohexyl)tetrahydrofuran-2-carboxamide] | 0.01 to 0.1
2 | CC(C)N1CCN(C(=O)[C@@H]2C[C@H](N(C(=O)[C@@H]3CCCO3)C3CCC(C)(C)CC3)CN2C(=O)[C@@H]2CN(C3CCSCC3)C[C@H]2c2ccc(F)cc2F)CC1 [Example 48, (2S)-N-{(3S,5S)-1-{[(3S,4R)-4-(2,4-difluorophenyl)-1-(tetrahydro-2H-thiopyran-4-yl)pyrrolidin-3-yl]carbonyl}-5-[(4-isopropylpiperazin-1-yl)carbonyl]pyrrolidin-3-yl}-N-(4,4-dimethylcyclohexyl)tetrahydrofuran-2-carboxamide] | 0.01 to 0.1
3 | CN1CCN(C(=O)[C@@H]2C[C@H](N(C(=O)C(C)(C)CO)C3CCC(C)(C)CC3)CN2C(=O)[C@@H]2CN(C3CCOCC3)C[C@H]2c2ccc(Cl)cc2)CC1 [Example 49, N-{(3S,5S)-1-{[(3S,4R)-4-(4-chlorophenyl)-1-(tetrahydro-2H-pyran-4-yl)pyrrolidin-3-yl]carbonyl}-5-[(4-methylpiperazin-1-yl)carbonyl]pyrrolidin-3-yl}-N-(4,4-dimethylcyclohexyl)-3-hydroxy-2,2-dimethylpropanamide] | 0.0001 to 0.01
4 | CN1CCN(C(=O)[C@@H]2C[C@H](N(C(=O)C(C)(C)C)C3CCC(F)(F)CC3)CN2C(=O)[C@@H]2CN(C3CCOCC3)C[C@H]2c2ccc(Cl)cc2)CC1 [Example 50, N-{(3S,5S)-1-{[(3S,4R)-4-(4-chlorophenyl)-1-(tetrahydro-2H-pyran-4-yl)pyrrolidin-3-yl]carbonyl}-5-[(4-methylpiperazin-1-yl)carbonyl]pyrrolidin-3-yl}-N-(4,4-difluorocyclohexyl)-2,2-dimethylpropanamide] | 0.0001 to 0.01
5 | CN1CCN(C(=O)[C@@H]2C[C@H](N(C(=O)[C@@H]3CCCO3)C3CCC(F)(F)CC3)CN2C(=O)[C@@H]2CN(C3CCOCC3)C[C@H]2c2ccc(Cl)cc2)CC1 [Example 51, (2S)-N-{(3S,5S)-1-{[(3S,4R)-4-(4-chlorophenyl)-1-(tetrahydro-2H-pyran-4-yl)pyrrolidin-3-yl]carbonyl}-5-[(4-methylpiperazin-1-yl)carbonyl]pyrrolidin-3-yl}-N-(4,4-difluorocyclohexyl)tetrahydrofuran-2-carboxamide] | 0.01 to 0.1
6 | CC(C)N1CCN(C(=O)[C@H]2C[C@H](N(C(=O)[C@@H]3CCCO3)C3CCC(C)(C)CC3)CN2C(=O)[C@@H]2CN(C3CCOCC3)C[C@H]2c2ccc(F)cc2F)CC1 [Example 52, (2S)-N-{(3S,5R)-1-{[(3S,4R)-4-(2,4-difluorophenyl)-1-(tetrahydro-2H-pyran-4-yl)pyrrolidin-3-yl]carbonyl}-5-[(4-isopropylpiperazin-1-yl)carbonyl]pyrrolidin-3-yl}-N-(4,4-dimethylcyclohexyl)tetrahydrofuran-2-carboxamide] | 0.0001 to 0.01
7 | CN1CCN(C(=O)[C@@H]2C[C@H](N(C(=O)C(C)(C)C)[C@H]3CC[C@@H](C)CC3)CN2C(=O)[C@@H]2CN(C3CCOCC3)C[C@H]2c2ccc(F)cc2F)CC1 [Example 53, N-{(3S,5S)-1-{[(3S,4R)-4-(2,4-difluorophenyl)-1-(tetrahydro-2H-pyran-4-yl)pyrrolidin-3-yl]carbonyl}-5-[(4-methylpiperazin-1-yl)carbonyl]pyrrolidin-3-yl}-2,2-dimethyl-N-(cis-4-methylcyclohexyl)propanamide] | 0.0001 to 0.01
8 | CC(=O)N(C1CCC(C)CC1)[C@H]1C[C@H](C(=O)N2CCN(C)CC2)N(C(=O)[C@@H]2CN(C3CCOCC3)C[C@H]2c2ccc(Cl)cc2)C1 (stereo partly drawn) [Example 54, N-{(3S,5R)-1-{[(3S,4R)-4-(4-chlorophenyl)-1-(tetrahydro-2H-pyran-4-yl)pyrrolidin-3-yl]carbonyl}-5-[(4-methylpiperazin-1-yl)carbonyl]pyrrolidin-3-yl}-N-(4-methylcyclohexyl)acetamide] | 0.0001 to 0.01
9 | CN1CCN(C(=O)[C@H]2C[C@H](N(C(=O)[C@@H]3CCCO3)C3CCC(C)(C)CC3)CN2C(=O)[C@@H]2CN(C3CC3)C[C@H]2c2ccc(Cl)cc2)CC1 [Example 55, (2S)-N-{(3S,5R)-1-{[(3S,4R)-4-(4-chlorophenyl)-1-cyclopropylpyrrolidin-3yl]carbonyl}-5-[(4-methylpiperazin-1-yl)carbonyl]pyrrolidin-3-yl}-N-(4,4-dimethylcyclohexyl)tetrahydrofuran-2-carboxamide] | 0.01 to 0.1
10 | CN1CCN(C(=O)[C@@H]2C[C@H](N(C(=O)[C@@H]3CCCO3)[C@H]3CC[C@@H](C)CC3)CN2C(=O)[C@@H]2CN(C3CC3)C[C@H]2c2ccc(Cl)cc2)CC1 [Example 56, (2S)-N-{(3S,5S)-1-{[(3S,4R)-4-(4-chlorophenyl)-1-cyclopropylpyrrolidin-3-yl]carbonyl}-5-[(4-methylpiperazin-1-yl)carbonyl]pyrrolidin-3-yl}-N-(cis-4-methylcyclohexyl)tetrahydrofuran-2-carboxamide] | 0.01 to 0.1
11 | CN1CCN(C(=O)[C@H]2C[C@H](N(C(=O)[C@@H]3CCCO3)[C@H]3CC[C@@H](C)CC3)CN2C(=O)[C@@H]2CN(C3CC3)C[C@H]2c2ccc(Cl)cc2)CC1 [Example 57, (2S)-N-{(3S,5R)-1-{[(3S,4R)-4-(4-chlorophenyl)-1-cyclopropylpyrrolidin-3-yl]carbonyl}-5-[(4-methylpiperazin-1-yl)carbonyl]pyrrolidin-3-yl}-N-(cis-4-methylcyclohexyl)tetrahydrofuran-2-carboxamide] | 0.01 to 0.1
12 | CN1CCN(C(=O)[C@@H]2C[C@H](N(C(=O)C(C)(C)CO)C3CCC(C)(C)CC3)CN2C(=O)[C@@H]2CN(C3CC3)C[C@H]2c2ccc(Cl)cc2)CC1 [Example 58, N-{(3S,5S)-1-{[(3S,4R)-4-(4-chlorophenyl)-1-cyclopropylpyrrolidin-3-yl]carbonyl}-5-[(4-methylpiperazin-1-yl)carbonyl]pyrrolidin-3-yl}-N-(4,4-dimethylcyclohexyl)-3-hydroxy-2,2-dimethylpropanamide] | 0.0001 to 0.01
13 | CN1CCN(C(=O)[C@@H]2C[C@H](N(C(=O)C(C)(C)CO)[C@H]3CC[C@@H](C)CC3)CN2C(=O)[C@@H]2CN(C3CC3)C[C@H]2c2ccc(Cl)cc2)CC1 [Example 59, N-{(3S,5S)-1-{[(3S,4R)-4-(4-chlorophenyl)-1-cyclopropylpyrrolidin-3-yl]carbonyl}-5-[(4-methylpiperazin-1-yl)carbonyl]pyrrolidin-3-yl}-N-(cis-4-methylcyclohexyl)-3-hydroxy-2,2-dimethylpropanamide] | 0.0001 to 0.01
14 | CN1CCN(C(=O)[C@@H]2C[C@H](N(C(=O)C(C)(C)CO)[C@H]3CC[C@@H](C)CC3)CN2C(=O)[C@@H]2CN(C3CC3)C[C@H]2c2ccc(F)cc2F)CC1 [Example 60, N-{(3S,5S)-1-{[(3S,4R)-1-cyclopropyl-4-(2,4-difluorophenyl)pyrrolidin-3-yl]carbonyl}-5-[(4-methylpiperazin-1-yl)carbonyl]pyrrolidin-3-yl}-N-(cis-4-methylcyclohexyl)-3-hydroxy-2,2-dimethylpropanamide] | 0.0001 to 0.01
